{"source": "patent US8524906B2", "about": "“Tetrahydrothiazolopyridine inhibitors of phosphatidylinositol 3-kinase” (Vertex Pharmaceuticals Incorporated, priority 2009, dated 2013)", "note": "Values joined by “and” are separate entries in the source; they are usually repeats but may differ in a detail not shown here. Equal values may be shown once."}
{"biological_target": "PI3Kγ (Homo sapiens, UniProt P48736)", "sequence (P48736 whole entry, species assumed)": "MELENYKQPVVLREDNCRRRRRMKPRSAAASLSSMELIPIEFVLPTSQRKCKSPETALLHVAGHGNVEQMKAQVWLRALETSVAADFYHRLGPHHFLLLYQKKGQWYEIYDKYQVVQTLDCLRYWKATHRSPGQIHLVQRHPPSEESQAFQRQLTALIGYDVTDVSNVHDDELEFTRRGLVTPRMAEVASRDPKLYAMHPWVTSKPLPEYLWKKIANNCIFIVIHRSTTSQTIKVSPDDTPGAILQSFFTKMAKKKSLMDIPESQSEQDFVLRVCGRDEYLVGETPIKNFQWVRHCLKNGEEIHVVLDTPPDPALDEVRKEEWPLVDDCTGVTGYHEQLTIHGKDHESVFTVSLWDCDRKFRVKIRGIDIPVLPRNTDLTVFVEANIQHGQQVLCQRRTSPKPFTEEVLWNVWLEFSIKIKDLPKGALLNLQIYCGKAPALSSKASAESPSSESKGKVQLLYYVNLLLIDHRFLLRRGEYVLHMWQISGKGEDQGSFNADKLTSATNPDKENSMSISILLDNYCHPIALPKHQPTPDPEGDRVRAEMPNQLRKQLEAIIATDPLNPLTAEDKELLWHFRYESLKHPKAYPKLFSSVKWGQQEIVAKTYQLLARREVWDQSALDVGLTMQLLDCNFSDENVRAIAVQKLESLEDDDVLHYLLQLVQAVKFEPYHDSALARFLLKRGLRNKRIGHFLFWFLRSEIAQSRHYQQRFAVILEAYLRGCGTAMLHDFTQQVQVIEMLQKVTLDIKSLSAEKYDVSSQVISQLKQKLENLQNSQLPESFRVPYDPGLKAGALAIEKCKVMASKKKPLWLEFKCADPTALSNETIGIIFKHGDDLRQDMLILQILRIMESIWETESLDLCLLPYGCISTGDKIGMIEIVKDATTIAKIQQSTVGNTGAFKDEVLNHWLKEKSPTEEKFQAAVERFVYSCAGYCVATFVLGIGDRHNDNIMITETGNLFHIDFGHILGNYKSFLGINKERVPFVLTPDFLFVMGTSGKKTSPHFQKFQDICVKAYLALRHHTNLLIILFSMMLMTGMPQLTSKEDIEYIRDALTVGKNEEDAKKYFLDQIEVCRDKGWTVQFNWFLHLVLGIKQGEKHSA", "assay": "PI3K Inhibition Assay (33P-ATP, PI(4,5)P2 substrate, filter plate scintillation counting)", "assay_type": "biochemical", "conditions": "3 μM ATP, 30 μM PI(4,5)P2, 2 nM final enzyme, 30 min at 25° C.; competitive tight binding Ki fit; read-out: Ki for PI3Kγ", "procedure": "(§1) One test well also contained 1.5 μL of DMSO with no compound. […] Using a Titertek Multidrop, 50 μL of Reaction Mix [100 mM HEPES pH 7.5, 50 mM NaCl, 10 mM DTT, 0.2 mg/mL BSA, 60 μM phosphatidylinositol(4,5)-bisphosphate diC16 (PI(4,5)P2; Avanti Polar Lipids, Cat. No. 840046P) and PI3K isoform of interest (see Table 3 for isoform concentrations)] was added to each well. To initiate the reaction, 50 μL of ATP Mix [20 mM MgCl2, 6 μM ATP (100 μCi/μmole ^33P-ATP)] was added each well, followed by incubating the wells for 30 min. at 25° C. Final concentrations in each well were 50 mM HEPES 7.5, 10 mM MgCl2, 25 mM NaCl, 5 mM DTT, 0.1 mg/mL BSA, 30 μM PI(4,5)P2, 3 μM ATP, and the PI3K isoform of interest (see Table 3). Final compound concentrations in each well ranged from 10 μM to 1 nM.\n(§2) After incubation, the reactions in each well were quenched by addition of 50 μL of stop solution [30% TCA/Water, 10 mM ATP]. […] 50 μL of scintillation fluid was added to each well and the plate read on a Perkin-Elmer TopCount™ NXT liquid scintillation counter to obtain ^33P-counts representing inhibition values.\n(§3) The value for the background well was subtracted from the value obtained for each test well and the data were fit to the competitive tight binding Ki equation described by Morrison and Stone, Comments Mol. Cell Biophys."}
{"smiles": "COCC(=O)Nc1nc2c(s1)CN(c1cncc(OC)c1)CC2", "note": "[Compound 4]", "Ki": "< 100 nM"}
{"smiles": "CCNC(=O)Nc1nc2c(s1)CN(c1cncc(C(F)(F)F)c1)CC2", "note": "[Compound 6]", "Ki": "< 100 nM"}
{"smiles": "CC(=O)Nc1nc2c(s1)CN(c1cncc(C(F)(F)F)c1)CC2", "note": "[Compound 7]", "Ki": "< 100 nM"}
{"smiles": "COCC(=O)Nc1nc2c(s1)CN(c1cncc(C(F)(F)F)c1)CC2", "note": "[Compound 8]", "Ki": "< 100 nM"}
{"smiles": "CCNC(=O)Nc1nc2c(s1)CN(c1cnc(OC)c(OC)c1)CC2", "note": "[Compound 10]", "Ki": "< 100 nM"}
{"smiles": "CCCOCCNC(=O)Nc1nc2c(s1)CN(c1cncc(C(F)(F)F)c1)CC2", "note": "[Compound 12]", "Ki": "< 20 nM"}
{"smiles": "COc1ncc(N2CCc3nc(NC(C)=O)sc3C2)nc1OC", "note": "[Compound 14, N-(4,5,6,7-tetrahydro-5-(5,6-dimethoxypyrazin-2-yl)thiazolo[5,4-c]pyridin-2-yl)acetamide]", "Ki": "< 20 nM"}
{"smiles": "COc1cc(N2CCc3nc(NC=O)sc3C2)cnc1OC", "note": "[Compound 15]", "Ki": "< 100 nM"}
{"smiles": "CCCOCCNC(=O)Nc1nc2c(s1)CN(c1cnc(OC)c(OC)c1)CC2", "note": "[Compound 16]", "Ki": "< 100 nM"}
{"smiles": "CC(=O)Nc1nc2c(s1)CN(c1cncc(C(F)(F)F)n1)CC2", "note": "[Compound 17]", "Ki": "< 100 nM"}
{"smiles": "COc1cncc(N2CCc3nc(Nc4cnccn4)sc3C2)c1", "note": "[Compound 18, 4,5,6,7-tetrahydro-5-(5-methoxypyridin-3-yl)-N-(pyrazin-2-yl)thiazolo[5,4-c]pyridin-2-amine]", "Ki": "< 100 nM"}
{"smiles": "COc1cc(N2CCc3nc(NC(=O)CCNC(=O)c4ccccn4)sc3C2)cnc1OC", "note": "[Compound 32]", "Ki": "< 100 nM"}
{"smiles": "COc1cc(N2CCc3nc(NC(=O)CNC(=O)c4ccccn4)sc3C2)cnc1OC", "note": "[Compound 33]", "Ki": "< 100 nM"}
{"smiles": "CCOC(=O)CCCNC(=O)Nc1nc2c(s1)CN(c1cnc(Cl)c(OC)c1)CC2", "note": "[Compound 34]", "Ki": "< 100 nM"}
{"smiles": "COCCNC(=O)Nc1nc2c(s1)CN(c1cnc(Cl)c(OC)c1)CC2", "note": "[Compound 35]", "Ki": "< 100 nM"}
{"smiles": "COc1cc(N2CCc3nc(NC(=O)NCCCN(C)C)sc3C2)cnc1Cl", "note": "[Compound 37]", "Ki": "< 100 nM"}
{"smiles": "COc1cc(N2CCc3nc(NC(=O)NCCc4cn(CCF)cn4)sc3C2)cnc1Cl", "note": "[Compound 38]", "Ki": "< 100 nM"}
{"smiles": "CCOCCCNC(=O)Nc1nc2c(s1)CN(c1cnc(Cl)c(OC)c1)CC2", "note": "[Compound 39]", "Ki": "< 100 nM"}
{"smiles": "COc1cc(N2CCc3nc(NC(=O)CCNC(C)=O)sc3C2)cnc1Cl", "note": "[Compound 44]", "Ki": "< 100 nM"}
{"smiles": "COc1cc(N2CCc3nc(NC(=O)NCCCO)sc3C2)cnc1Cl", "note": "[Compound 50]", "Ki": "< 100 nM"}
{"smiles": "COc1cc(N2CCc3nc(NC(=O)N4CC(OC)C4)sc3C2)cnc1Cl", "note": "[Compound 51]", "Ki": "< 100 nM"}
{"smiles": "CCOC(=O)CCNC(=O)Nc1nc2c(s1)CN(c1cnc(Cl)c(OC)c1)CC2", "note": "[Compound 52]", "Ki": "< 20 nM and 3 nM and < 100 nM"}
{"smiles": "COc1cc(N2CCc3nc(NC(=O)N4CCCC4)sc3C2)cnc1Cl", "note": "[Compound 57]", "Ki": "< 100 nM"}
{"biological_target": "PI3Kγ (Homo sapiens, UniProt P48736)", "assay": "PI3K Inhibition Assay (33P-ATP, PI(4,5)P2 substrate, filter plate scintillation counting)", "assay_type": "biochemical", "conditions": "Ki for PI3Kγ, 3 μM ATP, 30 μM PI(4,5)P2, 2 nM final enzyme, 30 min at 25° C.; competitive tight binding Ki fit", "procedure": "as §1, §2, §3", "units": {"Ki": "nM"}}
{"smiles": "COc1cc(N2CCc3nc(NC(=O)NCCCl)sc3C2)cnc1OC", "note": "[Compound 11]", "Ki": "< 100"}
{"smiles": "COc1cncc(N2CCc3nc(NC(=O)CF)sc3C2)c1", "note": "[Compound 19]", "Ki": "< 100"}
